Publication PMC4014704, “β-Boomerang Antimicrobial and Antiendotoxic Peptides: Lipidation and Disulfide Bond Effects on Activity and Structure” (Pharmaceuticals, 2014)
≈ marks a conversion by molar mass, not a printed value. Peptide text beside a SMILES is read from it.

How the values were obtained:
[1] = Reverse phase HPLC retention time (hydrophobicity); assay type: physicochemical; design: unit not given beside the values; conditions: C18 column (300 Å pore size, 5 μm particle size), linear gradient acetonitrile/water, higher Rt taken as more hydrophobic
Source text: Materials: LPS of E. coli 0111:B4, FITC-LPS of E. coli 055:B5, acrylamide, NPN (1-N-phenylnaphthylamine) were purchased from Sigma (Saint Louis, MO, USA). All bacterial strains were obtained from the American Type Culture Collection (Manassas, VA, USA). Designed peptides were synthesized commercially by GL Biochem (Shanghai, China) and further purified by a reverse phase HPLC (Waters), using a C18 column (300 Å pore size, 5 μm particle size). The dimeric variants of β-boomerang lipopeptides were treated with 20% DMSO for 18 hours and the oxidized peptides were further purified by HPLC. A linear gradient of acetonitrile/water mixture was used for the purification and fractions eluting with higher purity were collected and freeze-dried.
(§1) In addition, incorporation of disulfide bridges in AMPs may stabilize conformations and enhance cationicity and hydrophobicity required for enhanced activity. […] Residue Ile10 was chosen for Cys replacement since this residue is located at the exposed face of the β-strand of the YI12WF structure (Figure 1).

B.subtilis (Lab strain) = assay: Antibacterial assay (MIC); assay type: cell-based; conditions: 10 mM phosphate buffer pH 6.8, 3 h 37 °C, streaked on Mueller-Hinton agar
Procedure: (§2) Antibacterial assay: The minimum inhibitory concentration (MIC) of the designed peptides was determined against four Gram-negative strains (E. coli, P. aeruginosa ATCC 27853, K. pneumoniae ATCC 13883, S. enterica ATCC 14028) and four Gram-positive strains (B. subtilis, S. aureus ATCC 25923, S. pyogenes ATCC 19615 and E. faecalis ATCC 29212). In brief, mid logarithmic phase of overnight grown bacterial cultures were obtained in LB broth and adjusted to OD600 0.2 in 10 mM phosphate buffer, pH 6.8. About 50 μL of these cells were added to equal volume of designed peptides at two-fold dilutions in 96-well sterile polypropylene plates followed by incubation for 3hrs at 37 °C. Aliquots of the above titrated wells were streaked onto Mueller-Hinton agar plates and the concentration at which no visible bacterial growth was observed considered as the MIC value of the peptide.

E.coli (Lab strain) = assay: Antibacterial assay (MIC); assay type: cell-based; conditions: 10 mM phosphate buffer pH 6.8, 3 h 37 °C, streaked on Mueller-Hinton agar, no visible growth
Procedure: as §2

E.faecalis (ATCC 29212) = assay: Antibacterial assay (MIC); assay type: cell-based; conditions: 10 mM phosphate buffer pH 6.8, 3 h 37 °C, streaked on Mueller-Hinton agar
Procedure: as §2

[2] = system: K. pneumoniae (ATCC 13883); assay: Antibacterial assay (MIC); assay type: cell-based; conditions: 10 mM phosphate buffer pH 6.8, 3 h 37 °C, streaked on Mueller-Hinton agar
Procedure: as §2

[3] = system: P.aeruginosa (ATCC 27853); assay: Antibacterial assay (MIC); assay type: cell-based; conditions: 10 mM phosphate buffer pH 6.8, 3 h 37 °C, streaked on Mueller-Hinton agar
Procedure: as §2

S.aureus (ATCC 25923) = assay: Antibacterial assay (MIC); assay type: cell-based; conditions: 10 mM phosphate buffer pH 6.8, 3 h 37 °C, streaked on Mueller-Hinton agar
Procedure: as §2

S.enterica (ATCC 14028) = assay: Antibacterial assay (MIC); assay type: cell-based; conditions: 10 mM phosphate buffer pH 6.8, 3 h 37 °C, streaked on Mueller-Hinton agar
Procedure: as §2

S.pyogenes (ATCC 19615) = assay: Antibacterial assay (MIC); assay type: cell-based; conditions: 10 mM phosphate buffer pH 6.8, 3 h 37 °C, streaked on Mueller-Hinton agar
Procedure: as §2

red blood cells = conditions: mouse RBC ~4% (v/v) in PBS pH 7.0, 1 h, OD540, 1% Triton-X = positive control
Procedure: Hemolytic assay: Blood was collected from healthy mice in a tube containing EDTA. Cells with EDTA were centrifuged at 800 g for 10 min, to remove the buffy plasma coat layer, and washed three times in PBS (35 mM phosphate buffer, 150 mM NaCl, pH 7.0). 50 μL of RBC solution was added to equal volume of two-fold dilution of the peptides in 96-well micro titer plates and incubated for one hour. The final erythrocyte concentration estimated to be ~4% (v/v). After one hour, the mixture was centrifuged and the release of hemoglobin in the supernatant was determined spectrophotometrically at OD540. Buffer and 1% Triton-X in the place of peptides used as negative control and positive control, respectively. The percentage of hemolysis was calculated using the following method: Percentage of hemolysis = (OD peptide − OD buffer)/(OD Triton-X-OD buffer) × 100

LPS (endotoxin) = assay: LPS neutralization assay (chromogenic LAL kit); assay type: biochemical
Procedure: LPS neutralization assay: LAL chromogenic kit (QCL 100 Cambrex, Walkersville, MD, USA) was used to determine endotoxin neutralization of the designed peptides following protocol of the vendor. LPS in Gram negative bacteria activates a proenzyme in limulus amoebocyte lysate (LAL). This activated enzyme in turn catalytically release a colored product pNA from the colorless substrate Ac-Ile-Glu-Ala-Arg-pNA which is detected spectrophotometrically at OD410. All peptides were dissolved in the pyrogen-free water supplied with the kit and pH was adjusted to 7.0 with 1N HCl or 1N NaOH (which is prepared in pyrogen-free water). The increasing concentrations of the peptides were incubated with three different concentrations of endotoxins, i.e., at 0.4, 0.8 and 1.0 endotoxin units (EU) in a total volume of 50 μL for 30 minutes at 37 °C. About 50 μL of LAL reagent was added to peptide-LPS complex and further incubated for 10 minutes followed by addition of 100 μL substrate. After incubation of six minutes for the reaction, the release of colored product was recorded at OD410. Water in the place of peptides served as negative control (blank) that is considered as 0% inhibition and percentage of LPS neutralization was calculated by: % of LPS neutralization = [(OD blank − OD peptide)/OD blank] × 100

E. coli cells = assay: Zeta potential measurements; assay type: cell-based; conditions: 4 μM peptide; cells without peptide about −20.0 mV; OD600 0.2
Procedure: Zeta potential measurements: The zeta potential measurements were carried out on a Zetasizer Nano ZS (Malvern Instruments, Worcestershire, UK) equipped with a 633 nm He lasers. Mid-log phase grown bacterial cells were diluted to an OD600 of 0.2 and a basal measurement in the absence of peptides was acquired in disposable zeta cells with gold electrodes. Increasing concentrations of the designed peptides were then added to the cells and the measurements were made. A total of five measurements of 100 runs each were carried out for all dilutions.

LPS micelles [4] = assay: Dynamic light scattering of LPS micelles; design: species or system E. coli 0111:B4; conditions: DLS, 0.5 μM LPS, LPS:peptide 1:4; LPS alone 814 nm
Procedure: Dynamic light scattering measurements: LPS forms micelles of large sizes, which with the addition of increasing concentration of peptides, dissociates to smaller sizes. DLS measurements were made for 0.5 μM LPS and then with LPS: Peptide ratios of 1:2 and 1:4. The scattering was measured with Dynamic Light Scattering software provided with the instrument (Brookhaven Instruments Corp., Holtsville, NY, USA) and the scattering data was analyzed with CONTIN method.

LPS micelles [5] = assay: Isothermal titration calorimetry; assay type: binding, E. coli 0111:B4; conditions: ITC
Procedure: Isothermal titration calorimetry: Binding of designed peptides with LPS micelles was determined using isothermal titration calorimetry in VP-ITC micro calorimeter (Microcal Inc, Northampton, MA, USA). Peptides and LPS samples were dissolved in 10 mM phosphate buffer, pH 7.0 and filtered. LPS at a concentration of 10 μM was loaded into the sample cell and the reference cell was filled with the same buffer. The syringe was filled with 1mM peptide solution. Typically 30 injections of 3.5 μL of the peptides were made into the sample cell at 25 °C. Sample cell was stirred continuously at 300 rpm. Raw data were obtained and analyzed using single site binding model in Microcal Origin 5.0 software. Association constant (Ka) and enthalpy change (ΔH) were directly determined from ITC profiles. Dissociation constant was calculated from Kd = 1/Ka. ΔG and TΔS were estimated from the fundamental equations of thermodynamics, ΔG = −RTlnKa and TΔS = (ΔH − ΔG), respectively.

[6] = system: outer membrane of E. coli cells; assay: Outer membrane permeability assay (NPN dye); assay type: cell-based; conditions: E. coli OD600 0.5, 10 μM NPN
Procedure: Outer membrane permeability assay: Outer membrane of Gram bacteria acts as permeability barrier for hydrophobic antibacterial compounds. […] E. coli cells were grown to mid logarithmic phase and diluted to an OD600nm of 0.5 in 10 mM sodium phosphate buffer, pH 7.0. The excitation was set at 350 nm and emission at 390–450 nm. NPN was added to the diluted cells at the concentration of 10 μM and a basal fluorescence was recorded followed by the addition of increasing concentration of peptides.

[7] = aqueous solution for NMR
Source text: as §1
The solution conformations of YI13C, C4YI13C peptides were examined in free solution using two-dimensional ^1H-^1H NOESY and TOCSY experiments.

[8] = 0.4 EU endotoxin, 1.0 μM peptide, 30 min 37 °C, OD410

Structure (SMILES)	Retention time (Rt) [1]	Minimum inhibitory concentration (MIC) (B.subtilis (Lab strain))	Minimum inhibitory concentration (MIC) (E.coli (Lab strain))	Minimum inhibitory concentration (MIC) (E.faecalis (ATCC 29212))	Minimum inhibitory concentration (MIC) [2]	Minimum inhibitory concentration (MIC) [3]	Minimum inhibitory concentration (MIC) (S.aureus (ATCC 25923))	Minimum inhibitory concentration (MIC) (S.enterica (ATCC 14028))	Minimum inhibitory concentration (MIC) (S.pyogenes (ATCC 19615))	% of hemolysis at 50 μM peptide concentration (red blood cells)	LPS neutralization (LPS (endotoxin); [8])	LPS neutralization (LPS (endotoxin); 1.0 EU endotoxin, 1.0 μM peptide)	Zeta potential of E. coli cells after peptide addition (E. coli cells)	Diameter of LPS aggregates (LPS micelles [4])	Ka (LPS micelles [5]; 1 mM peptide into 10 μM LPS, 10 mM phosphate buffer pH 7.0, 25 °C, single site binding model)	Kd (LPS micelles [5]; LPS micelles, pH 7.0, 25 °C, Kd = 1/Ka)	LPS neutralization (LPS (endotoxin); at increased peptide concentration, different LPS concentrations (0.4, 0.8, 1.0 EU), dose dependent)	NPN fluorescence intensity with increasing peptide (in words) [6]	Solubility for NMR studies (in words) [7]
CCCC(=O)N[C@@H](Cc1ccc(O)cc1)C(=O)N[C@H](C(=O)N[C@@H](CC(C)C)C(=O)N[C@@H](Cc1c[nH]c2ccccc12)C(=O)N[C@@H](CCCCN)C(=O)N[C@@H](CCCNC(=N)N)C(=O)N[C@@H](CCCCN)C(=O)N[C@@H](CCCNC(=N)N)C(=O)N[C@@H](CCCCN)C(=O)N[C@@H](Cc1ccccc1)C(=O)N[C@@H](CSSC[C@H](NC(=O)[C@H](Cc1ccccc1)NC(=O)[C@H](CCCCN)NC(=O)[C@H](CCCNC(=N)N)NC(=O)[C@H](CCCCN)NC(=O)[C@H](CCCNC(=N)N)NC(=O)[C@H](CCCCN)NC(=O)[C@H](Cc1c[nH]c2ccccc12)NC(=O)[C@H](CC(C)C)NC(=O)[C@@H](NC(=O)[C@H](Cc1ccc(O)cc1)NC(=O)CCC)C(C)C)C(=O)N[C@@H](Cc1ccccc1)C(=O)N[C@H](C(N)=O)[C@@H](C)CC)C(=O)N[C@@H](Cc1ccccc1)C(=O)N[C@H](C(N)=O)[C@@H](C)CC)C(C)C [C4YI13C] (HELM PEPTIDE1{[CCCC(=O)[*:2]].Y.V.L.W.K.R.K.R.K.F.C.F.I.[am]}|PEPTIDE2{[CCCC(=O)[*:2]].Y.V.L.W.K.R.K.R.K.F.C.F.I.[am]}$PEPTIDE1,PEPTIDE2,12:R3-12:R3$$$V2.0)	31.62	15 µM (≈ 55.7 µg/mL)	10 µM (≈ 37.1 µg/mL)	50 µM (≈ 186 µg/mL)	8 µM (≈ 29.7 µg/mL)	15 µM (≈ 55.7 µg/mL)	50 µM (≈ 186 µg/mL)	50 µM (≈ 186 µg/mL)	50 µM (≈ 186 µg/mL)	14.1%	~ 40%	50%	about +19.1 mV	331 nm	2.2 µM⁻¹	450 nM			
CCCCCCCC(=O)N[C@@H](Cc1ccc(O)cc1)C(=O)N[C@H](C(=O)N[C@@H](CC(C)C)C(=O)N[C@@H](Cc1c[nH]c2ccccc12)C(=O)N[C@@H](CCCCN)C(=O)N[C@@H](CCCNC(=N)N)C(=O)N[C@@H](CCCCN)C(=O)N[C@@H](CCCNC(=N)N)C(=O)N[C@@H](CCCCN)C(=O)N[C@@H](Cc1ccccc1)C(=O)N[C@@H](CSSC[C@H](NC(=O)[C@H](Cc1ccccc1)NC(=O)[C@H](CCCCN)NC(=O)[C@H](CCCNC(=N)N)NC(=O)[C@H](CCCCN)NC(=O)[C@H](CCCNC(=N)N)NC(=O)[C@H](CCCCN)NC(=O)[C@H](Cc1c[nH]c2ccccc12)NC(=O)[C@H](CC(C)C)NC(=O)[C@@H](NC(=O)[C@H](Cc1ccc(O)cc1)NC(=O)CCCCCCC)C(C)C)C(=O)N[C@@H](Cc1ccccc1)C(=O)N[C@H](C(N)=O)[C@@H](C)CC)C(=O)N[C@@H](Cc1ccccc1)C(=O)N[C@H](C(N)=O)[C@@H](C)CC)C(C)C [C8YI13C] (HELM PEPTIDE1{[CCCCCCCC(=O)[*:2]].Y.V.L.W.K.R.K.R.K.F.C.F.I.[am]}|PEPTIDE2{[CCCCCCCC(=O)[*:2]].Y.V.L.W.K.R.K.R.K.F.C.F.I.[am]}$PEPTIDE1,PEPTIDE2,12:R3-12:R3$$$V2.0)	37.40	5 µM (≈ 19.1 µg/mL)	3 µM (≈ 11.5 µg/mL)	4 µM (≈ 15.3 µg/mL)	12 µM (≈ 45.9 µg/mL)	5 µM (≈ 19.1 µg/mL)	5 µM (≈ 19.1 µg/mL)	50 µM (≈ 191 µg/mL)	50 µM (≈ 191 µg/mL)	21.5%	around 60%		~+24.0 mV	385 nm			80%	continues to increase	limited solubility
